From PubChem BioAssay (NCI) come the findings set out here.

Each structure is given as a SMILES string.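 Each compound was tested at five concentrations against cells in 96-well plates for 48 hours. At the GI50, growth is halved. At the TGI there is no net growth.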

The first assay has as its system A549 NSCLC. Kind of assay: NCI tumour cell line growth inhibition, 48 h.
Consider `Cc1ccc2c(C(C[N+](=O)[O-])c3cccs3)c(-c3ccccc3)[nH]c2c1` (stereo not drawn), for which the GI50 is 2.73 µM and the TGI worked out at 15.1 µM.
With `N/C(CC(=O)Nc1cc(C(F)(F)F)ccc1Cl)=N\O`, the TGI was over 100 µM.
For the compound `C#Cc1cnc(=O)n(C2CC(O)C(CO)O2)c1` (stereo not drawn), the GI50 was over 100 µM and the TGI was over 100 µM.
Turning to `COc1c(C2CC(=O)Nc3c2cnn3Cc2ccco2)cc2c(c1OC)OCO2` (stereo not drawn), the GI50 is 0.61 µM and the TGI was over 100 µM.
For `O=C(c1cccs1)c1c(C(F)(F)F)n([O-])c2ccccc2[n+]1=O`, the GI50 is 1.36 µM and the TGI is 3.78 µM.
Turning to `CC(CO)(CO)N=Cc1cc(I)cc(I)c1O`, the TGI is over 100 µM.
Turning to `CCN1CCN(c2nc(NCCCNc3ccnc4cc(Cl)ccc34)c3ccccc3n2)CC1`, the GI50 was 2.84 µM and the TGI stood at 11.9 µM.
In the same order, the values of `CC1(C)N=C(N)N=C(N)N1c1ccc(CCCCc2ccc(S(=O)(=O)F)cc2)cc1` are 0.623 µM and over 100 µM.
Regarding `NC(N)=N/N=C(/c1ccccc1)c1ccc(F)cc1`, the GI50 was 0.512 µM and the TGI is over 34.6 µM.
In the same order, the values of `COc1cc(C(=O)NC2c3ccccc3-c3ccccc32)c(N)cc1OCc1ccccc1` are 17.9 µM and over 100 µM.
In the same order, the values of `Oc1ccccc1/C=N/Nc1ccc2ccccc2n1` are 5.33 µM and over 100 µM.
In the same order, the values of `COc1ccc(C(=S)N2CCN(c3cccc(Cl)c3)CC2)cc1` are over 100 µM and over 100 µM.

The next assay concerns BT-549 breast. Put plainly: NCI tumour cell line growth inhibition, 48 h.
For the compound `Cc1ccc2c(C(C[N+](=O)[O-])c3cccs3)c(-c3ccccc3)[nH]c2c1` (stereo not drawn), the GI50 was 1.92 µM and the TGI amounted to 7.29 µM.
The compound `N/C(CC(=O)Nc1cc(C(F)(F)F)ccc1Cl)=N\O` returned a TGI of over 100 µM.
As to `C#Cc1cnc(=O)n(C2CC(O)C(CO)O2)c1` (stereo not drawn), the GI50 is over 100 µM and the TGI is over 100 µM.
With `COc1c(C2CC(=O)Nc3c2cnn3Cc2ccco2)cc2c(c1OC)OCO2` (stereo not drawn), the GI50 is 1.1 µM and the TGI is over 100 µM.
In the same order, the values of `O=C(c1cccs1)c1c(C(F)(F)F)n([O-])c2ccccc2[n+]1=O` are 0.908 µM and 2.37 µM.
Compound `CC(CO)(CO)N=Cc1cc(I)cc(I)c1O` returned a TGI of 36.4 µM.
For `CCN1CCN(c2nc(NCCCNc3ccnc4cc(Cl)ccc34)c3ccccc3n2)CC1`, the GI50 is 3.45 µM and the TGI worked out at 13.6 µM.
The like results for `CC1(C)N=C(N)N=C(N)N1c1ccc(CCCCc2ccc(S(=O)(=O)F)cc2)cc1` were, in that order, 7.97 µM and 20.9 µM.
The like results for `NC(N)=N/N=C(/c1ccccc1)c1ccc(F)cc1` were, in that order, 0.551 µM and 2.85 µM.
In the same order, the values of `COc1cc(C(=O)NC2c3ccccc3-c3ccccc32)c(N)cc1OCc1ccccc1` are 17 µM and 42.2 µM.
For the compound `Oc1ccccc1/C=N/Nc1ccc2ccccc2n1`, the GI50 is 8.08 µM and the TGI was over 100 µM.
In the same order, the values of `COc1ccc(C(=S)N2CCN(c3cccc(Cl)c3)CC2)cc1` are over 100 µM and over 100 µM.

For a further assay, the system named is KM12 colon. Put plainly: NCI tumour cell line growth inhibition, 48 h.
As for `Cc1ccc2c(C(C[N+](=O)[O-])c3cccs3)c(-c3ccccc3)[nH]c2c1` (stereo not drawn), the GI50 was 1.54 µM and the TGI came to 7.25 µM.
`N/C(CC(=O)Nc1cc(C(F)(F)F)ccc1Cl)=N\O` had a TGI of over 100 µM.
`C#Cc1cnc(=O)n(C2CC(O)C(CO)O2)c1` (stereo not drawn): the GI50 is over 100 µM and the TGI is over 100 µM.
For the compound `COc1c(C2CC(=O)Nc3c2cnn3Cc2ccco2)cc2c(c1OC)OCO2` (stereo not drawn), the GI50 is 0.439 µM and the TGI was over 100 µM.
As for `O=C(c1cccs1)c1c(C(F)(F)F)n([O-])c2ccccc2[n+]1=O`, the GI50 was 1.12 µM and the TGI was determined as 3.07 µM.
As to `CC(CO)(CO)N=Cc1cc(I)cc(I)c1O`, the TGI was 28.2 µM.
`CCN1CCN(c2nc(NCCCNc3ccnc4cc(Cl)ccc34)c3ccccc3n2)CC1`: the GI50 was 2.74 µM and the TGI stood at 11.4 µM.
In the same order, the values of `CC1(C)N=C(N)N=C(N)N1c1ccc(CCCCc2ccc(S(=O)(=O)F)cc2)cc1` are 0.601 µM and 13 µM.
For the compound `NC(N)=N/N=C(/c1ccccc1)c1ccc(F)cc1`, the GI50 was 0.32 µM and the TGI was determined as 7.5 µM.
For the compound `COc1cc(C(=O)NC2c3ccccc3-c3ccccc32)c(N)cc1OCc1ccccc1`, the GI50 was over 100 µM and the TGI is over 100 µM.
For the compound `Oc1ccccc1/C=N/Nc1ccc2ccccc2n1`, the GI50 is 3.24 µM and the TGI was over 100 µM.
The like results for `COc1ccc(C(=S)N2CCN(c3cccc(Cl)c3)CC2)cc1` were, in that order, over 100 µM and over 100 µM.

A further assay relates to MCF7 breast. Kind of assay: NCI tumour cell line growth inhibition, 48 h.
Turning to `Cc1ccc2c(C(C[N+](=O)[O-])c3cccs3)c(-c3ccccc3)[nH]c2c1` (stereo not drawn), the GI50 is 1.41 µM and the TGI came out at 12.8 µM.
As for `N/C(CC(=O)Nc1cc(C(F)(F)F)ccc1Cl)=N\O`, the TGI was over 100 µM.
Consider `C#Cc1cnc(=O)n(C2CC(O)C(CO)O2)c1` (stereo not drawn), for which the GI50 was over 100 µM and the TGI is over 100 µM.
Regarding `COc1c(C2CC(=O)Nc3c2cnn3Cc2ccco2)cc2c(c1OC)OCO2` (stereo not drawn), the GI50 is 0.367 µM and the TGI is over 100 µM.
For the compound `O=C(c1cccs1)c1c(C(F)(F)F)n([O-])c2ccccc2[n+]1=O`, the GI50 was 0.549 µM and the TGI was 1.95 µM.
`CC(CO)(CO)N=Cc1cc(I)cc(I)c1O` displayed a TGI of 46.3 µM.
With `CCN1CCN(c2nc(NCCCNc3ccnc4cc(Cl)ccc34)c3ccccc3n2)CC1`, the GI50 is 1.93 µM and the TGI was 11.1 µM.
For `CC1(C)N=C(N)N=C(N)N1c1ccc(CCCCc2ccc(S(=O)(=O)F)cc2)cc1`, the GI50 was 0.425 µM and the TGI is 14.2 µM.
Turning to `NC(N)=N/N=C(/c1ccccc1)c1ccc(F)cc1`, the GI50 is 0.296 µM and the TGI stood at 12.1 µM.
The like results for `COc1cc(C(=O)NC2c3ccccc3-c3ccccc32)c(N)cc1OCc1ccccc1` were, in that order, 42.8 µM and over 100 µM.
The like results for `Oc1ccccc1/C=N/Nc1ccc2ccccc2n1` were, in that order, 4.92 µM and 91.5 µM.
In the same order, the values of `COc1ccc(C(=S)N2CCN(c3cccc(Cl)c3)CC2)cc1` are 75 µM and over 100 µM.

A further assay relates to MOLT-4 leukemia. Kind of assay: NCI tumour cell line growth inhibition, 48 h.
Regarding `Cc1ccc2c(C(C[N+](=O)[O-])c3cccs3)c(-c3ccccc3)[nH]c2c1` (stereo not drawn), the GI50 was 1.53 µM and the TGI is over 33.3 µM.
The compound `N/C(CC(=O)Nc1cc(C(F)(F)F)ccc1Cl)=N\O` came in with a TGI of over 100 µM.
Consider `C#Cc1cnc(=O)n(C2CC(O)C(CO)O2)c1` (stereo not drawn), for which the GI50 was 98.9 µM and the TGI was over 100 µM.
`COc1c(C2CC(=O)Nc3c2cnn3Cc2ccco2)cc2c(c1OC)OCO2` (stereo not drawn): the GI50 was 0.615 µM and the TGI is over 100 µM.
In the same order, the values of `O=C(c1cccs1)c1c(C(F)(F)F)n([O-])c2ccccc2[n+]1=O` are 2.32 µM and 4.19 µM.
Turning to `CC(CO)(CO)N=Cc1cc(I)cc(I)c1O`, the TGI was 47.5 µM.
In the case of `CCN1CCN(c2nc(NCCCNc3ccnc4cc(Cl)ccc34)c3ccccc3n2)CC1`, the GI50 is 2.07 µM and the TGI worked out at 9.04 µM.
In the same order, the values of `CC1(C)N=C(N)N=C(N)N1c1ccc(CCCCc2ccc(S(=O)(=O)F)cc2)cc1` are 1.41 µM and 24.3 µM.
As for `NC(N)=N/N=C(/c1ccccc1)c1ccc(F)cc1`, the GI50 is 2.67 µM and the TGI was over 38.1 µM.
The like results for `COc1cc(C(=O)NC2c3ccccc3-c3ccccc32)c(N)cc1OCc1ccccc1` were, in that order, over 78.4 µM and over 100 µM.
The like results for `Oc1ccccc1/C=N/Nc1ccc2ccccc2n1` were, in that order, 2.6 µM and over 100 µM.
